Entries after “also recorded” stand apart in the source; their conditions may differ. Bridges are numbered along the chain shown (N, C = ends). Where no end group is shown, it is not given here.
Legend:
[1] = system: C57BL/6CrjCrlj mice; test: Bone morphology measurement with calcein labeling after peptide D administration; format: in vivo, mouse; conditions: region 5 mm away from the distal end of the femur
Protocol: In the experiment in Example 11 in which synthetic peptide D had been administered to mice, calcein (Nacalai) mixed with 2% hydrogen carbonate/ethanol aqueous solution was intraperitoneally administered in doses of 0.01 mL/g (weight) to individual mice of each group for calcein labeling on Days 1 and 4 after the initiation of administration of synthetic peptide D. A region located 5 mm away from the ethanol-fixed distal end of the femur collected from each mouse upon dissection was embedded in a methylmethacrylate (MMA) resin so that a non-decalcified specimen was prepared. […] As a result, in the group treated with peptide D, increases in calcification rate and osteogenesis rate were observed (FIGS. 25A and 25B).

[2] = system: Smad1/5/8; test: Western blotting of Smad1/5/8 phosphorylation in MC3T3-E1 cells; format: cell-based, mouse; conditions: up to 3 hours after the addition; 200 μM peptide D or 200 ng/ml BMP-2
Protocol: MC3T3-E1 cells mixed with 10% FBS+αMEM (SIGMA) were seeded on a 6-well plate (7.5×10^4 cells/well). […] The medium was removed at the respective time points shown in the relevant figures. PBS was added to the cells, and the cells were collected with a scraper (Falcon). A cell pellet was obtained via centrifugation at 1200 rpm for 5 min at 4° C. RIPA buffer (100 μL) was added to the collected pellet, for dissolution of the cellular membrane. Further, the resultant was centrifuged under conditions of 14500 rpm for 25 min at 4° C. The supernatant was collected as a cell extract. A portion of the cell extract was used for quantification of the protein concentration with the use of a BCA protein assay kit (PIERCE). For SDS-PAGE, a sample buffer in an amount that was ¼ that of the cell extract (Fermentas) was added thereto, followed by heating at 95° C. for 5 min. The prepared sample was applied in an amount of 7.5 or 10 μg to 10% polyacrylamide gel (BioRad), followed by electrophoresis at 170 V for 1 hour. After electrophoresis, the electrophoresed sample was transferred to a PVDF membrane (Millipore) at 80 mA for 40 min. The membrane was shaken in a blocking solution (Nacalai) at room temperature for 1 hour and then a primary antibody was added thereto, followed by shaking at room temperature for 1 hour at 4° C. for 12 hours. […]

[3] = system: mouse tibia; test: RT-PCR of osteogenesis markers in tibia of mice given peptide D; format: in vivo; conditions: peptide D acetate 10 mg/kg s.c. three times daily for 5 days
Protocol: Synthetic peptide D subjected to substitution with an acetate was used in this experiment. The synthetic peptide D was dissolved in PBS at a concentration of 1 mg/mL. PBS was administered to a control group.
Subcutaneous administration of synthetic peptide D in the form of acetate was carried out in a dose of 10 mg/kg at 8:00, 14:00, and 20:00 (three times daily) for 5 days. PBS was administered to the control group. Mice were dissected 12 hour after the completion of administration for 5 days and subjected to exsanguination. Thereafter, the femur and the tibia were collected from each mouse. The whole blood of each mouse was left at room temperature for 1 hour and then centrifuged under conditions of 5000 rpm and 4° C. for 5 min. The serum was collected in a new tube. The femur and the tibia of each mouse were fixed with cold 70% ethanol. Muscles and the like were carefully removed from each tibia. Then, each tibia was washed with PBS and cut into 1-mm fragments with scissors, followed by freezing with liquid nitrogen. […]
After cDNA synthesis, as in the case of Example 23, PCR was performed using primers specific to mouse alkaline phosphatase (mALP), mouse type I collagen αI chain (mCollagen αI), and mouse osteocalcin (mOC). […] The obtained images were analyzed with a CSAnalyzer and standardized based on the GAPDH expression levels. […]

[4] = system: mouse osteoblasts; test: Proliferative response of mouse osteoblasts (WST-1); format: cell-based; conditions: 100 μM peptide D (acetate) or 3 μg/mL antibody; with or without 5 ng/mL BMP-2; 72-hour culture
Protocol: Mouse osteoblasts mixed with 10% FBS+αMEM (SIGMA) were seeded on a 96-well plate (2×10^3 cells/well). After cell adhesion had taken place, the medium was removed therefrom. […] After 72-hour culture, WST-1 (Roche) was added thereto in an amount 1/10 that of each medium, followed by incubation at 37° C. for 3 hours. Then, the OD value (450 nm) for each well was determined with a microplate reader (BMG Labtech) (reference wavelength: 595 nm).

[5] = system: RANKL knock-down MC3T3-E1 cells; test: ALP activity in RANKL knock-down MC3T3-E1 cells; format: cell-based, mouse; conditions: KD1 and KD2; 200 μM peptide D or 200 ng/ml BMP-2; 5 days

peptide D: cyclic peptide of SEQ ID NO: 7, 9 amino acids, two cysteine residues bound via a disulfide bond; binds to RANKL (YCWSQYLCY; disulfide 2-8 (inferred))
calcification rate [1]: increases
osteogenesis rate (bone formation rate) [1]: increases
phosphorylation of Smad1/5/8 [2]: not induced
expression levels of mALP, mCollagen αI and mOC in tibia [3]: increase in the expression level of each factor
mouse osteoblast proliferation (WST-1) [4]: promoted mouse osteoblast proliferation; also recorded: weak effects
ALP activity enhancement under RANKL knockdown [5]: significantly reduced

From patent US20100260680A1, “NOVEL BONE MASS INCREASING AGENT” (ORIENTAL YEAST CO., LTD., priority 2007, published 2010)
